Our source for the IC50 and EC50 values is US8546608B2, “Proteasome inhibitors and methods of using the same” (Cephalon, Inc., priority 2003, dated 2013).

SMILES strings stand for the structures. Bounds are passed on as bounds.

Assay [1] concerns the target T1, 20S Human Erythrocyte Proteasome (HEP) (Homo sapiens, UniProt P20618+P28074).
T1 construct: 20S Human Erythrocyte Proteasome (HEP), purchased from Immatics Biotechnologies Inc; purchased Immatics Biotechnologies Inc., Tübingen, Germany; host or cells: human erythrocytes (natural source)
The experiment in a line: Chymotrypsin-like activity of 20S Human Erythrocyte Proteasome (HEP), IC50 determination. The assay is classed as biochemical. The note with it: assay of Example C, inhibition of HEP. The method, boiled down:
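20S proteasome at 0.2 μg/mL (about 0.6 nM catalytic sites) in 20 mM Tris with 0.04% SDS, preincubated 15 min at 37° C with inhibitor before Suc-LLVY-AMC (100 μM final). AMC fluorescence read in the linear range; triplicates, IC50 from concentration series.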

In assay [2] the target is T2, proteasome in Molt-4 cells (human leukemia) (Homo sapiens, UniProt P20618+P28074).
T2 sequence (P28074 60-263): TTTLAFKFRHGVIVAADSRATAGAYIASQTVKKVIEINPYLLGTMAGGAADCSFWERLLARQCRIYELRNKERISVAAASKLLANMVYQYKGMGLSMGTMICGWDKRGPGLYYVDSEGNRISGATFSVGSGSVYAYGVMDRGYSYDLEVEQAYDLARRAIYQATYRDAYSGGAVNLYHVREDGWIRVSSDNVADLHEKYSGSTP
T2 sequence (P20618 29-241): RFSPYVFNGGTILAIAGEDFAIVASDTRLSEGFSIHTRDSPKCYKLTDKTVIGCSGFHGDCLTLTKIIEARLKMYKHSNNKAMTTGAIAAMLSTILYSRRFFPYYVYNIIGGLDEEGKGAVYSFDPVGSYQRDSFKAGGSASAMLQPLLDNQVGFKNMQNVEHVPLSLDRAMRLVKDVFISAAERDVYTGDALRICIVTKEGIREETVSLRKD
It is filed as cell-based. The note with it: assay of Example E, inhibition of MOLT4; read-out: MOLT4 (EC50). Summed up:
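Intact Molt-4 cells (6×10^6 cells/mL) in HEPES-buffered saline were preincubated with inhibitor 15 min at 37 °C, then given cell-permeable MeOSuc-FLF-AFC at 25 μM final.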

One may read the IC50 as the concentration at which inhibition is half-maximal. A low value points to higher potency. A word on the EC50: it is the midpoint of the concentration-response curve. In assay [1], `CC(C)C[C@H](NC(=O)[C@@H](NC(=O)c1ccc2cc(Br)ccc2c1)[C@@H](C)O)B(O)O` [E.1.26, Boronic acid, [(1R)-1-[[(2S,3R)-3-hydroxy-2-[(6-Bromo-2-naphthoyl)amino]-1-oxobutyl]amino]-3-methylbutyl]] had a concentration for half-maximal inhibition (IC50) below 10 nM. For the same compound, the half-maximal effective concentration (EC50) in assay [2] was below 200 nM.
Compound `CCCCCCCCCC(=O)N[C@@H](CC(N)=O)C(=O)N[C@@H](CC(C)C)B(O)O` [E.1.27, Boronic acid, [(1R)-1-[[(2S)-3-carbamoyl-2-[(decanoyl)amino]-1-oxopropyl]amino]-3-methylbutyl]] registered an IC50 in assay [1] below 10 nM. Also, in assay [2], the EC50 is below 200 nM.
Take `CCCCc1ccc(C(=O)N[C@@H](CC(N)=O)C(=O)N[C@@H](CC(C)C)B(O)O)cc1` [E.1.28, Boronic acid, [(1R)-1-[[(2S)-3-carbamoyl-2-[4-butyl(benzoyl)amino]-1-oxopropyl]amino]-3-methylbutyl]]: in assay [1], the IC50 was below 10 nM. In addition, the EC50 in assay [2] lay within 200 to 2000 nM.
On to `CCCCCCCCCC(=O)N[C@@H](CCCNC(N)=O)C(=O)N[C@@H](CC(C)C)B(O)O` [E.1.29, Boronic acid, [(1R)-1-[[(2S)-2-[(decanoyl)amino]-1-oxo-5-ureido-pentyl]amino]-3-methylbutyl]], for which the half-maximal inhibitory concentration (IC50) in assay [1] is below 10 nM. For the same compound, the EC50 in assay [2] was 200 to 2000 nM.
The corresponding values for `CCCCc1ccc(C(=O)N[C@@H](CCCNC(N)=O)C(=O)N[C@@H](CC(C)C)B(O)O)cc1` [E.1.30, Boronic acid, [(1R)-1-[[(2S)-2-[(4-butylbenzoyl)amino]-1-oxo-5-ureido-pentyl]amino]-3-methylbutyl]] are below 10 nM and 2000 to 10000 nM.
In the case of `CCCCCCCCCC(=O)N[C@@H](CCCNC(=N)N[N+](=O)[O-])C(=O)N[C@@H](CC(C)C)B(O)O` [E.2.1, Boronic acid, [(1R)-1-[[(2S)-5-[[imino(nitroamino)methyl]amino]-2-[(1-oxodecyl)amino]-1-oxopentyl]amino]-3-methylbutyl]], the IC50 in assay [1] was below 10 nM. In assay [2], the concentration giving a half-maximal response (EC50) was below 200 nM.
Taken in the same sequence, the figures for `CCCCCCCC(=O)N[C@@H](CCCNC(=N)N[N+](=O)[O-])C(=O)N[C@@H](CC(C)C)B(O)O` [E.2.2, Boronic acid, [(1R)-1-[[(2S)-5-[[imino(nitroamino)methyl]amino]-2-[(octanoyl)amino]-1-oxopentyl]amino]-3-methylbutyl]] were below 10 nM and 200 to 2000 nM.
As to `CC(C)C[C@H](NC(=O)[C@H](CCCNC(=N)N[N+](=O)[O-])NC(=O)C1(c2ccccc2)CCCC1)B(O)O` [E.2.3, Boronic acid, [(1R)-1-[[(2S)-5-[[imino(nitroamino)methyl]amino]-2-[(1-phenylcyclopentanecarbnyl)amino]-1-oxopentyl]amino]-3-methylbutyl]], in assay [1], the half-inhibitory concentration (IC50) is below 10 nM. Besides, the 50% effective concentration (EC50) in assay [2] fell in the range of 2000 to 10000 nM.
Turning to `CC[C@@H](C(=O)N[C@@H](CCCNC(=N)N[N+](=O)[O-])C(=O)N[C@@H](CC(C)C)B(O)O)c1ccccc1` [E.2.4, Boronic acid, [(1R)-1-[[(2S)-5-[[imino(nitroamino)methyl]amino]-2-[((2R)-2-phenylbutanoyl)amino]-1-oxopentyl]amino]-3-methylbutyl]], in assay [1], the IC50 is below 10 nM. The half-maximal effective concentration (EC50) in assay [2] was above 10000 nM.
In assay [1], `CC(C)C[C@H](NC(=O)[C@H](CCCNC(=N)N[N+](=O)[O-])NC(=O)C1CCC(C(C)(C)C)CC1)B(O)O` (stereo partly drawn) [E.2.5, Boronic acid, [(1R)-1-[[(2S)-5-[[imino(nitroamino)methyl]amino]-2-[[4-(1,1-Dimethylethyl)cyclohexanecarbonyl]amino]-1-oxopentyl]amino]-3-methylbutyl]] showed an IC50 below 10 nM. Moreover, the concentration giving a half-maximal response (EC50) in assay [2] is 2000 to 10000 nM.
The corresponding values for `CCCCC[C@H]1CC[C@H](C(=O)N[C@@H](CCCNC(=N)N[N+](=O)[O-])C(=O)N[C@@H](CC(C)C)B(O)O)CC1` [E.2.6, Boronic acid, [(1R)-1-[[(2S)-5-[[imino(nitroamino)methyl]amino]-2-[(trans-4-pentylcyclohexanecarbonyl)amino]-1-oxopentyl]amino]-3-methylbutyl]] are below 10 nM and 200 to 2000 nM.
The corresponding values for `CC(C)C[C@H](NC(=O)[C@H](CCCNC(=N)N[N+](=O)[O-])NC(=O)CCCc1ccccc1)B(O)O` [E.2.7, Boronic acid, [(1R)-1-[[(2S)-5-[[imino(nitroamino)methyl]amino]-2-[(4-phenylbutanoyl)amino]-1-oxopentyl]amino]-3-methylbutyl]] are below 10 nM and 2000 to 10000 nM.
Taken in the same sequence, the figures for `CC(C)C[C@H](NC(=O)[C@H](CCCNC(=N)N[N+](=O)[O-])NC(=O)c1ccc(C(C)(C)C)cc1)B(O)O` [E.2.8, Boronic acid, [(1R)-1-[[(2S)-5-[[imino(nitroamino)methyl]amino]-2-[(4-(1,1-dimethylethyl)benzoyl)amino]-1-oxopentyl]amino]-3-methylbutyl]] were below 10 nM and 2000 to 10000 nM.
In turn, `CCCCCCCCC(=O)N[C@@H](CCCNC(=N)N[N+](=O)[O-])C(=O)N[C@@H](CC(C)C)B(O)O` [E.2.9, Boronic acid, [(1R)-1-[[(2S)-5-[[imino(nitroamino)methyl]amino]-2-[(nonanoyl)amino]-1-oxopentyl]amino]-3-methylbutyl]] showed an IC50 in assay [1] below 10 nM. For the same compound, the concentration for a half-maximal effect (EC50) in assay [2] lay in the range of 200 to 2000 nM.
With `CC(C)C[C@H](NC(=O)[C@H](CCCNC(=N)N[N+](=O)[O-])NC(=O)c1cccs1)B(O)O` [E.2.10, Boronic acid, [(1R)-1-[[(2S)-5-[[imino(nitroamino)methyl]amino]-2-[(2-thiophenecarbonyl)amino]-1-oxopentyl]amino]-3-methylbutyl]], the half-maximal inhibitory concentration (IC50) in assay [1] was below 10 nM. For the same compound, in assay [2], the EC50 is above 10000 nM.
Taken in the same sequence, the figures for `CC(C)C[C@H](NC(=O)[C@H](CCCNC(=N)N[N+](=O)[O-])NC(=O)c1cccc(F)c1F)B(O)O` [E.2.11, Boronic acid, [(1R)-1-[[(2S)-5-[[imino(nitroamino)methyl]amino]-2-[(2,3-difluorobenzoyl)amino]-1-oxopentyl]amino]-3-methylbutyl]] were below 10 nM and above 10000 nM.
Compound `CCCCCCCCCCCC(=O)N[C@@H](CCCNC(=N)N[N+](=O)[O-])C(=O)N[C@@H](CC(C)C)B(O)O` [E.2.12, Boronic acid, [(1R)-1-[[(2S)-5-[[imino(nitroamino)methyl]amino]-2-[(dodecanoyl)amino]-1-oxopentyl]amino]-3-methylbutyl]] registered a half-inhibitory concentration (IC50) in assay [1] below 10 nM. In addition, in assay [2], the concentration giving a half-maximal response (EC50) was below 200 nM.
The corresponding values for `CC(C)C[C@H](NC(=O)[C@H](CCCNC(=N)N[N+](=O)[O-])NC(=O)Cc1ccccc1I)B(O)O` [E.2.13, Boronic acid, [(1R)-1-[[(2S)-5-[[imino(nitroamino)methyl]amino]-2-[[2-(2-iodophenyl)acetyl]amino]-1-oxopentyl]amino]-3-methylbutyl]] are below 10 nM and 2000 to 10000 nM.
The corresponding values for `CC(C)C[C@H](NC(=O)[C@H](CCCNC(=N)N[N+](=O)[O-])NC(=O)C1CCCCC1)B(O)O` [E.2.14, Boronic acid, [(1R)-1-[[(2S)-5-[[imino(nitroamino)methyl]amino]-2-[(cyclohexanecarbonyl)amino]-1-oxopentyl]amino]-3-methylbutyl]] are below 10 nM and above 10000 nM.
The corresponding values for `Cc1ccccc1C(=O)N[C@@H](CCCNC(=N)N[N+](=O)[O-])C(=O)N[C@@H](CC(C)C)B(O)O` [E.2.15, Boronic acid, [(1R)-1-[[(2S)-5-[[imino(nitroamino)methyl]amino]-2-[(2-methylbenzoyl)amino]-1-oxopentyl]amino]-3-methylbutyl]] are below 10 nM and above 10000 nM.
In assay [1], `CC(C)C[C@H](NC(=O)[C@H](CCCNC(=N)N[N+](=O)[O-])NC(=O)[C@@H](C)c1ccccc1)B(O)O` [E.2.16, Boronic acid, [(1R)-1-[[(2S)-5-[[imino(nitroamino)methyl]amino]-2-[((2S)-2-phenylpropanoyl)amino]-1-oxopentyl]amino]-3-methylbutyl]] gave a half-maximal inhibitory concentration (IC50) below 10 nM. Further, the concentration giving a half-maximal response (EC50) in assay [2] is above 10000 nM.
In assay [1], `CC(C)C[C@H](NC(=O)[C@H](CCCNC(=N)N[N+](=O)[O-])NC(=O)c1ccc2ccccc2n1)B(O)O` [E.2.18, Boronic acid, [(1R)-1-[[(2S)-5-[[imino(nitroamino)methyl]amino]-2-[(quinoline-2-carbonyl)amino]-1-oxopentyl]amino]-3-methylbutyl]] had an IC50 below 10 nM. Also, the concentration giving a half-maximal response (EC50) in assay [2] is 2000 to 10000 nM.
Taken in the same sequence, the figures for `CCCCCC/C=C/C(=O)N[C@@H](CCCNC(=N)N[N+](=O)[O-])C(=O)N[C@@H](CC(C)C)B(O)O` [E.2.19, Boronic acid, [(1R)-1-[[(2S)-5-[[imino(nitroamino)methyl]amino]-2-[(non-2-enoyl)amino]-1-oxopentyl]amino]-3-methylbutyl]] were below 10 nM and 2000 to 10000 nM.
